In brackets after ≈: the same amount, converted by molar mass. Like-named read-outs stand apart in the source and are kept apart here. No end group written: not given here.
Key:
Aspergillus niger = test system: Aspergillus niger
Procedure: (§1) iii. In Vitro Antifungal Assays • In vitro antifungal assays were performed in RPMI-1640 medium by broth micro dilution according to the Clinical and Laboratory Standards Institute (CLSI, formerly NCCL) methods M27-A3 and M-38-A2. […] Amphotericin B was used as positive control.

Candida albicans = test system: Candida albicans
Procedure: as §1

Ustilago maydis = test system: Ustilago maydis
Procedure: as §1

Cryptococcus = test system: Cryptococcus
Procedure: as §1

Neurospora crassa = test system: Neurospora crassa
Procedure: as §1

Fusarium oxysoprum = test system: Fusarium oxysoprum
Procedure: as §1

Escherichia coli = assay: microbe, parasite or virus in culture; assay type: cell-based
Salmonella enterica = assay: Inhibitory activity against bacteria (MIC 90); assay type: cell-based
Staphylococcus aureus = assay: microbe, parasite or virus in culture; assay type: cell-based
Pseudomonas aeruginosa = assay: microbe, parasite or virus in culture; assay type: cell-based
Candida albicans cells [1] = assay: ROS generation (DCFH-DA fluorescence); assay type: cell-based; details: peptides at their respective MICs, FIG. 6
Procedure: (§2) FIG. 6 depicts the membrane damage and reactive oxygen species (ROS) generation by the instant peptides (a) Untreated Control, (b) positive control (c) […] (known peptide sequence, not novel, not to be covered in the invention, was used only for comparison), (d)Seq IDNo. 2, (e) Seq IDNo. 3 and (f) Seq IDNo. 1, after incubation of peptides at their respective MICs with the Candida albicans cells. i. Membrane Damage and ROS Generation • The membrane damage and formation of ROS (Reactive oxygen species) are the antifungal mechanisms of a number of antimicrobial peptides. The membrane damage (middle panel) and ROS generation by the instant peptides (right panel) was monitored after incubation of peptides at their respective MICs with the Candida albicans cells as depicted in FIG. 6(a-f). A red fluorescence resulting from the membrane impermeable DNA binding dye propidium iodide was observed indicating the membrane damage in the cells due to action of peptides under study. A green fluorescence resulting from the oxidation of dye Dichloro-dihydro-fluorescein diacetate DCFH-DA (non-fluorescent molecule) into DCF 2',7'-dichlorofluorescein. (fluorescent molecule) was observed indicating the presence of ROS.

[2] = test system: human and plant pathogens; assay: In vitro antifungal assays, all cultures tested; assay type: cell-based; details: human and plant pathogenic fungi
Procedure: as §1

Yeast-Hypha transition = Yeast-Hypha transition inhibition; assay type: cell-based; details: at 4 μg/ml; Table 10 has no title
Procedure: ii. Yeast-Hypha Transition Inhibition. • The peptides were also tested for the Yeast-Hypha transition inhibition. In many human and plant pathogenic fungi direct correlation between the ability of fungus to switch between yeast (Y) and hypha (H) forms and pathogenicity have been reported (Jacobsen et al., 2012; Thompson et al., 2011; Nadal et al., 2008).

Candida albicans cells [3] = assay: Membrane damage (propidium iodide fluorescence); assay type: cell-based; details: peptides at their respective MICs, FIG. 6
Procedure: as §2

human erythrocyte = assay: Hemolytic activity, release of haemoglobin from erythrocyte suspensions in PBS; assay type: cell-based; details: human erythrocytes
Procedure: The toxicity of the present cationic, alpha-helical antimicrobial peptides on blood cells to determine their suitability for systemic application was performed. Lysis of erythrocyte membranes was determined by monitoring the release of haemoglobin from human erythrocyte suspensions in PBS, in relation to complete (100%) haemolysis. Table 13(a) provides the % hemolytic activity observed when a series of concentrations of the present peptides were brought in contact with erythrocytes. There was absence of any hemolytic activity upto concentrations in the range of 130 to 200 μg/mL. However at concentration above 250 μg/mL, a minimal level of hemolysis was observed.

MTT assay, cytotoxicity = assay type: cell-based, human; details: human, HeLa cells, concentration not given
Procedure: (§3) The cytolytic acivity of the present peptides was assessed by the MTT (3-(4,5-dimethylthiazol-2-yl)-2,5-diphenyltetrazolium bromide) assay against human cell lines (Hela cells). The cytotoxicity of on HeLa cells was assessed Approximately 10^4 cells per well were seeded in a 96-well plate and incubated for 12-16 h at 37° C.

Hela cells = assay: MTT assay, cytotoxicity; assay type: cell-based, human; details: concentration not given
Procedure: as §3

[4] = test system: Gram positive and Gram negative bacteria; assay: Inhibitory activity against bacteria, all cultures; assay type: cell-based

Row | Molecule | Antifungal potency in words, all the cultures tested [2] | MIC 90 (Escherichia coli) [µg/mL] | Y-H transition inhibition (Yeast-Hypha transition) [%] | MIC 90 (Staphylococcus aureus) [µg/mL] | MIC 90 (Aspergillus niger) [µg/mL] | MIC 90 (Candida albicans) [µg/mL] | MIC 90 (Ustilago maydis) [µg/mL] | MIC 90 (Cryptococcus) [µg/mL] | MIC 90 (Neurospora crassa) [µg/mL] | MIC 90 (Fusarium oxysoprum) [µg/mL] | MIC 90 (Pseudomonas aeruginosa) [µg/mL] | Hemolytic activity (human erythrocyte; 256 μg/mL) [%] | Hemolytic activity (human erythrocyte; 512 μg/mL) | Hemolytic activity (human erythrocyte; 1024 μg/mL) [%] | MIC 90 (Salmonella enterica) [µg/mL] | viability (MTT assay, cytotoxicity) [%] | O.D. (Treated Cells) (Hela cells) | other results
1 | C[C@@H]1[C@H](O)[C@@H](C)/C=C/C=C/C=C/C=C/C=C/C=C/C=C/[C@H](O[C@@H]2O[C@H](C)[C@@H](O)[C@H](N)[C@@H]2O)C[C@@H]2O[C@](O)(C[C@@H](O)C[C@@H](O)[C@H](O)CC[C@@H](O)C[C@@H](O)CC(=O)O[C@H]1C)C[C@H](O)[C@H]2C(=O)O [Ampho B, Amphotericin B, reference compound] | – | – | – | – | – | – | – | – | – | – | – | – | – | – | – | – | – | MIC 90 (Aspergillus niger; Aspergillus niger, RPMI-1640): 8 µg/mL (≈ 8.66 µM); MIC 90 (Candida albicans; Candida albicans, RPMI-1640): 4 µg/mL (≈ 4.33 µM); MIC 90 (Ustilago maydis; Ustilago maydis, RPMI-1640): 4 µg/mL (≈ 4.33 µM); MIC 90 (Cryptococcus; Cryptococcus, RPMI-1640): 4 µg/mL (≈ 4.33 µM); MIC 90 (Neurospora crassa; Neurospora crassa, RPMI-1640): 4 µg/mL (≈ 4.33 µM); MIC 90 (Fusarium oxysoprum; Fusarium oxysoprum, RPMI-1640): 8 µg/mL (≈ 8.66 µM)
2 | CC1(C)S[C@@H]2[C@H](NC(=O)[C@H](N)c3ccccc3)C(=O)N2[C@H]1C(=O)O [Ampicillin, ampicillin, reference compound] | – | – | – | – | – | – | – | – | – | – | – | – | – | – | – | – | – | MIC 90 (Escherichia coli; Escherichia coli, read-out: MIC 90): 4 µg/mL (≈ 11.4 µM); MIC 90 (Salmonella enterica; read-out: MIC 90): 4 µg/mL (≈ 11.4 µM); MIC 90 (Staphylococcus aureus; Staphylococcus aureus, read-out: MIC 90): 2 µg/mL (≈ 5.72 µM); MIC 90 (Pseudomonas aeruginosa; Pseudomonas aeruginosa, read-out: MIC 90): 2 µg/mL (≈ 5.72 µM)
3 | FKLRAKIKVRLRAKIKL [D4E1, reference compound] | most potent | 2 | 95.2 | 2 | 16 | 8 | 32 | 4 | 8 | 16 | 2 | – | – | – | – | – | – | ROS generation (Candida albicans cells [1]): higher; Relative potency in membrane damage and ROS generation (Candida albicans cells [3]): more potent
4 | FRLKFHLKF-NH2 [Seq Id No: 2] | – | 2 | – | 2 | 16 | 8 | 16 | 4 | 8 | 8 | 2 | 2 | 3.2%^ | 7 | 2 | 100 | 1.0185 | –
5 | VLKKLKKLC-NH2 [Seq Id No: 3] | moderate activity | 2 | 87.5 | 4 | 16 | 64 | 32 | 16 | 16 | 32 | 4 | 2 | 2.9% | 5.7 | 2 | 88 | 0.8325 | Potency towards Gram positive versus Gram negative bacteria [4]: higher potency towards Gram positive
